Measured values taken from patent publication US9682991B2, “Tricyclic compounds for use as kinase inhibitors” (FUNDACIÓN CENTRO NACIONAL DE INVESTIGACIONES ONCOLOGICAS …, priority 2009, dated 2017).

What was measured:
[1] = system: MV4:11 cells (leukemia, AML); test: MTT in vitro cell proliferation / combination assay, MV4:11; assay type: cell-based
Protocol: (§1) A combination index score is calculated by the Chou and Talalay method (CalcuSyn software, Biosoft). The strength of synergy is scored using the ranking system Chou and Talalay: CI less than 0.8 indicates synergy, CI between 0.8 and 1.2 indicates additivity and CI greater than 1.2 indicates antagonism.
(§2) The EC50 values of representative combinations were also calculated. The individually measured EC50 values of the chemotherapeutic agent and the example compounds are compared to the EC50 value of the combination. The cell lines are characterised by tumor type. […]

[2] = system: SKMel19 cells (melanoma); test: MTT in vitro cell proliferation / combination assay, SKMel19; assay type: cell-based
Protocol: as §1, §2

[3] = system: MiaPaca-2 cells (pancreas); test: MTT in vitro cell proliferation / combination assay, MiaPaca-2; assay type: cell-based
Protocol: (§3) Proliferation assays (MTT) were performed as described in: • “Chemical interrogation of FOXO3a nuclear translocation identifies potent and selective inhibitors of phosphoinositide 3-kinases”, W. Link, J. Oyarzabal, B. G. Serelde, M. I. Albarran, O. Rabal, A. Cebria, P. Alfonso, J. Fominaya, O. Renner, S. Peregrina, D. Soilan, P. A. Ceballos, A. I. Hernandez, M. Lorenzo, P. Pevarello, T. G. Granda, G. Kurz, A. Carnero, J. R. Bischoff, J. Biol. Chem. 284 (2009) 28392-28400. Combination Assay
as §1
(§4) The EC50 values of representative combinations were also calculated. The individually measured EC50 values of the chemotherapeutic agent and the example compounds are compared to the EC50 value of the combination. The cell lines are characterised by tumor type.
(§5) Combination assays were performed as described in: • “Pim 1 kinase inhibitor ETP-45299 suppresses cellular proliferation and synergizes with PI3K inhibition”. Blanco-Aparicio, Carmen; Collazo, Ana Maria Garcia; Oyarzabal, Julen; Leal, Juan F.; Albaran, Maria Isabel; Lima, Francisco Ramos; Pequeno, Belen; Ajenjo, Nuria; Becerra, Mercedes; Alfonso, Patricia; Reymundo, Maria Isabel; Palacios, Irene; Mateos, Genoveva; Quinones, Helena; Corrionero, Ana; Carnero, Amancio; Pevarello, Paolo; Lopez, Ana Rodriguez; Fominaya, Jesus; Pastor, Joaquin; Bischoff, James R. Cancer Letters (Shannon, Ireland) 2011, 300(2), 145-153.

[4] = system: Jeko-1 cells (Mantle cell lymphoma); test: MTT in vitro cell proliferation / combination assay, Jeko-1; assay type: cell-based
Protocol: as §1, §4
(§6) Blanco-Aparicio, Carmen; Collazo, Ana Maria Garcia; Oyarzabal, Julen; Leal, Juan F.; Albaran, Maria Isabel; Lima, Francisco Ramos; Pequeno, Belen; Ajenjo, Nuria; Becerra, Mercedes; Alfonso, Patricia; Reymundo, Maria Isabel; Palacios, Irene; Mateos, Genoveva; Quinones, Helena; Corrionero, Ana; Carnero, Amancio; Pevarello, Paolo; Lopez, Ana Rodriguez; Fominaya, Jesus; Pastor, Joaquin; Bischoff, James R. Cancer Letters (Shannon, Ireland) 2011, 300(2), 145-153.

[5] = system: DU145 cells (prostate); test: MTT in vitro cell proliferation / combination assay, DU145; assay type: cell-based
Protocol: as §3, §1, §4, §5

[6] = system: A549 cells (lung adenocarcinoma); test: MTT in vitro cell proliferation / combination assay, A549; assay type: cell-based
Protocol: as §1, §4, §6

[7] = system: HTC116 cells (colon carcinoma); test: MTT in vitro cell proliferation / combination assay, HTC116; assay type: cell-based
Protocol: as §1, §4

[8] = system: NCI H1975 cells (non small cell lung carcinoma); test: MTT in vitro cell proliferation / combination assay, NCI H1975; assay type: cell-based
Protocol: as §1, §4, §6

[9] = biological target: PIM-1 (Homo sapiens (Human), UniProt P11309); test: PIM-1 biochemical assay (ADP Hunter); settings: read-out: PIM1 IC50; semi-quantitative
Sequence of PIM-1 (P11309 whole entry): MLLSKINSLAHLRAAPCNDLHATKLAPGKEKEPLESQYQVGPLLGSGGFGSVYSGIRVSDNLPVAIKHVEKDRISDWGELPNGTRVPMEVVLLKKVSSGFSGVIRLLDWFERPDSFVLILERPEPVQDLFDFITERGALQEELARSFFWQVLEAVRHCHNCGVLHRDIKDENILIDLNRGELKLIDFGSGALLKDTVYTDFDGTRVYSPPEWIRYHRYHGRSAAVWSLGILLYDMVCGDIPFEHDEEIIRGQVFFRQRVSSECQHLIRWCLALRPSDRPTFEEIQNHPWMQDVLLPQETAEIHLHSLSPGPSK

[10] = MV4:11, combination with GDC-0941
[11] = MV4:11, combination with lapatinib
[12] = SKMel19, combination with GDC-0879
[13] = SKMel19, combination with GDC-0941
[14] = MiaPaca-2, combination with lapatinib
[15] = Jeko-1, combination with GDC-0941
[16] = Jeko-1, combination with lapatinib
[17] = DU145, combination with Taxotere
[18] = A549, combination with GDC-0941
[19] = HTC116, combination with PD-0325901
[20] = HTC116, combination with lapatinib
[21] = NCI H1975, combination with GDC-0941

CN1CCOc2c1c(N1CCC3(CC1)CC(N)C3)nn1c(-c3cccc(OC(F)(F)F)c3)nnc21 [Example 48, 7-[6-Methyl-3-(3-trifluoromethoxy-phenyl)-7,8-dihydro-6H-9-oxa-1,2,3a,4,6-pentaaza-cyclopenta[a]naphthalen-5-yl]-7-aza-spiro[3.5]non-2-ylamine]
EC50 ([1]; Homo sapiens, MV4:11, example compound alone): 1 µM
Combination Index (CI) [1, 10]: 0.3
Synergy [1, 10]: +++ (0.1<CI<0.3)
Combination Index (CI) [1, 11]: 0.548
Synergy [1, 11]: ++ (0.3<C1<0.7)
EC50 ([2]; Homo sapiens, SK-MEL19, SKMel19, example compound alone): 3 µM
Combination Index (CI) [2, 12]: 0.319
Synergy [2, 12]: ++ (0.3<C1<0.7)
Combination Index (CI) [2, 13]: 0.571
Synergy [2, 13]: ++ (0.3<C1<0.7)
EC50 ([2]; SKMel19, example compound alone): 4 µM
EC50 ([3]; Homo sapiens, MIA PaCa-2, MiaPaca-2, example compound alone, read-out: Example EC50): 5 µM
Combination Index (CI) [3, 14]: 0.57
Synergy [3, 14]: ++ (0.3<C1<0.7)
EC50 ([4]; Homo sapiens, Jeko-1, example compound alone, read-out: Example EC50): 2.5 µM
Combination Index (CI) [4, 15]: 0.718
Synergy [4, 15]: + (0.7<C1<1.2)
Combination Index (CI) [4, 16]: 0.244
Synergy [4, 16]: +++ (0.1<CI<0.3)
Combination Index (CI) [5, 17]: 0.704
Synergy [5, 17]: + (0.7<C1<1.2)
EC50 ([5]; Homo sapiens, DU-145, DU145, example compound alone, read-out: Example EC50): 15 µM
Combination Index (CI) [6, 18]: 0.12
Synergy [6, 18]: +++ (0.1<CI<0.3)
EC50 ([6]; Homo sapiens, A549, example compound alone): 6 µM
Combination Index (CI) [7, 19]: 0.759
Synergy [7, 19]: + (0.7<C1<1.2)
Combination Index (CI) [7, 20]: 0.608
Synergy [7, 20]: ++ (0.3<C1<0.7)
EC50 ([7]; HTC116, example compound alone, read-out: Example EC50): 10 µM
EC50 ([8]; Homo sapiens, NCI H1975, example compound alone): 5 µM
Combination Index (CI) [8, 21]: 0.038
Synergy [8, 21]: ++++ (CI<0.1)
IC50 [9]: < 0.1 µM
